Measured values reported in ChEMBL document CHEMBL3046734, “Molecular insights to explore abietane diterpenes as new LOX inhibitors” (Med Chem Res, 2013).

Key:
[1] = Inhibition of Soybean LOX using linoleic acid as substrate incubated for 5 mins prior to substrate addition measured after 10 mins by spectrophotometric analysis; design: species or system Glycine max
[2] = Inhibition of LOX (unknown origin); design: species or system Homo sapiens

Compound | IC50 [1] [µM] | IC50 [2] [µM]
COc1c(C(C)C)cc2c(c1O)C=C1C=CC(=O)C(C)(C)C1CC2=O (stereo not given) [TAXAMAIRIN F] | 73 | 
COc1c(C(C)C)cc2c(c1O)[C@@]1(C)CCC(=O)C(C)(C)[C@@H]1CC2=O [TAXUSABIETANE A] |  | 57
COc1c(C(C)C)cc2c(c1OC)[C@@]13CCC(=O)C(C)(C)[C@@H]1[C@H](OC3=O)C2=O [TAXUSABIETANE C] | 69 | 

Now from value to compound, other results behind:

IC50 [1] [µM] | Compound | IC50 [2] [µM]
22.1 | O=c1cc(-c2ccccc2)oc2cc(O)c(O)c(O)c12 [BAICALEIN] | 
41.6 | NC(=O)n1c(O)c(C(=O)c2cccs2)c2cc(Cl)ccc21 [TANIDAP SODIUM] | 
